Test results: patent US10975068B2, “6-aminopyridin-3-yl thiazoles as modulators of RORγT” (Janssen Pharmaceutica NV, priority 2016, dated 2021)
Read-outs that look alike come from different tables or passages of the source.

Experiments:
[1] = target: human RORγt ligand binding domain (RORγt LBD) (Homo sapiens (Human), UniProt P51449); assay: RORγt ThermoFluor® assay (thermal shift binding); settings: read-out: ThermoFluor® Assay, Kd
Procedure, shortened: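 His-tagged human RORγt LBD (0.065 mg/mL) with 60 μM 1,8-ANS in 100 mM Hepes pH 7.0, 10 mM NaCl, 2.5 mM GSH, 0.002% Tween-20 was heated at 1 °C/min.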

[2] = target: full-length human RORγt (Homo sapiens (Human), UniProt P51449); assay: RORγt (full-length human) reporter assay, Conditions B or C; format: cell-based; settings: for inhibition at 3 µM: at 3 μM compound concentration; for inhibition at 3 µM / inhibition at 1 µM: read-out: RORγt (FL) Reporter Assay B or C, % inhibition; for RORγt (FL) Reporter Assay B or C, % inhibition (value marked *): marked *: footnote not given; for inhibition at 1 µM: at 1 μM compound concentration
Procedure, shortened: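 HEK293T cells transiently co-transfected with GAL4-DBD–full-length human RORγt (nt 142-1635, NM_001001523.1) plus GAL4-firefly and CMV-Renilla luciferase reporters; compounds added 4-6 h post-transfection for 16-20 h in 1.3% FBS, 0.1% DMSO. Firefly signal normalized to DMSO and saturating reference compound, then to Renilla; IC50 from concentration plots.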

[3] = read-out: RORγt (FL) Reporter Assay B or C, IC50
[4] = Conditions B or C, read-out: RORγt (FL) Reporter Assay B or C, IC50

Sequence of human RORγt ligand binding domain (RORγt LBD) (P51449 other isoform, or with tags, fused parts or gaps): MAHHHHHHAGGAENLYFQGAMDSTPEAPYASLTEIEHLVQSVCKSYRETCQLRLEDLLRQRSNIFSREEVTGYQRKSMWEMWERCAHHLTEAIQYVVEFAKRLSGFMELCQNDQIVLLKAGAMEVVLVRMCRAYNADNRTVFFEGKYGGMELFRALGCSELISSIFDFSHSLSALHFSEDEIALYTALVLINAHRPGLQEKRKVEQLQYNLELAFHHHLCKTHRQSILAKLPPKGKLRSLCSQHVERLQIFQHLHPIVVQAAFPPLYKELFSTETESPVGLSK
Sequence of full-length human RORγt (P51449 other isoform, or with tags, fused parts or gaps): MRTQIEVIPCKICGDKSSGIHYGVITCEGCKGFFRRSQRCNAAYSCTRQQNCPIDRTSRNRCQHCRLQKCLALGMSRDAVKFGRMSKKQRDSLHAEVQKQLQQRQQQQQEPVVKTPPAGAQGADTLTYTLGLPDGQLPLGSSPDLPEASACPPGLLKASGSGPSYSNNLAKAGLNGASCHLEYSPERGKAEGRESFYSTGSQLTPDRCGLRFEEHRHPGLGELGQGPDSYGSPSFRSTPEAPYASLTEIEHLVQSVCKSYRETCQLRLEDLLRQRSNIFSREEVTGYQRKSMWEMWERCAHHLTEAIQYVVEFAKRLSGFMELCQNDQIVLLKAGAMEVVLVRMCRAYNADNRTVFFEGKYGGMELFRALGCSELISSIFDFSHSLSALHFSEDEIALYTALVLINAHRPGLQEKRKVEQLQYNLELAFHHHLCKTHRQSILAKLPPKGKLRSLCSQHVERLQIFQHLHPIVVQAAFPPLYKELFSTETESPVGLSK

SMILES	Kd [1]	inhibition at 3 µM [2]	IC50 [2, 3]	RORγt (FL) Reporter Assay B or C, % inhibition (value marked *) ([2]; Conditions B or C)	IC50 [2, 4]	inhibition at 6 µM ([2]; read-out: RORγt (FL) Reporter Assay B or C, % inhibition @ 6 μM, Conditions B or C, @ 6 μM)	inhibition at 1 µM [2]	IC50 ([2]; RORγt (FL) Reporter Assay B or C, IC50)
CC[C@H](Nc1cc(C(F)F)c(-c2sc(C(=O)N3CC4(CCO4)C3)nc2C(=O)N2CCC[C@@H]2C)cn1)C(F)(F)F [Example 385, [5-[4-(Difluoromethyl)-6-[[(1S)-1-(trifluoromethyl)propyl]amino]-3-pyridyl]-2-(3-oxa-6-azaspiro[3.3]heptane-6-carbonyl)thiazol-4-yl]-[(2S)-2-methylpyrrolidin-1-yl]methanone]	100 nM	95%	350 nM					
C[C@H]1CCCCN1C(=O)c1nc(C(=O)NCC(C)(C)O)sc1-c1cnc(NC(C)(C)C)cc1C(F)(F)F [Example 80, (S)-5-(6-(tert-Butylamino)-4-(trifluoromethyl)pyridin-3-yl)-N-(2-hydroxy-2-methylpropyl)-4-(2-methylpiperidine-1-carbonyl)thiazole-2-carboxamide]	0.19 nM			111* %	4.7 nM			
C[C@H]1CCCCN1C(=O)c1nc(C(=O)NCC(C)(C)O)sc1-c1cnc(N[C@@H]2CCCCC2(F)F)cc1C(F)(F)F (relative stereo) [Example 31, 5-(6-(((R*)-2,2-Difluorocyclohexyl)amino)-4-(trifluoromethyl)pyridin-3-yl)-N-(2-hydroxy-2-methylpropyl)-4-((S)-2-methylpiperidine-1-carbonyl)thiazole-2-carboxamide]	0.15 nM				4.5 nM	111%		
C[C@H]1CCCN1C(=O)c1nc(C(=O)N[C@H](C)C(C)(C)O)sc1-c1cnc(NC(C)(C)C)cc1C(F)F [Example 269, 5-[6-(tert-Butylamino)-4-(difluoromethyl)-3-pyridyl]-N-[(1R)-2-hydroxy-1,2-dimethyl-propyl]-4-[(2S)-2-methylpyrrolidine-1-carbonyl]thiazole-2-carboxamide]	4.9 nM	101%	8.2 nM					
C[C@H](Nc1cc(C(F)F)c(-c2sc(C(=O)NC3CCC3O)nc2C(=O)N2CCC[C@@H]2C)cn1)C(F)(F)F (stereo partly drawn) [Example 386, 5-(4-(Difluoromethyl)-6-(((S)-1,1,1-trifluoropropan-2-yl)amino)pyridin-3-yl)-N-(trans-2-hydroxycyclobutyl)-4-((S)-2-methylpyrrolidine-1-carbonyl)thiazole-2-carboxamide]	9.4 nM	99%	72 nM					
C[C@H](NC(=O)c1nc(C(=O)N2CCC[C@@H]2C)c(-c2cnc(NC3(C)CCC3)cc2C(F)F)s1)C(C)(C)O [Example 322, 5-(4-(Difluoromethyl)-6-((1-methylcyclobutyl)amino)pyridin-3-yl)-N—((S)-3-hydroxy-3-methylbutan-2-yl)-4-((S)-2-methylpyrrolidine-1-carbonyl)thiazole-2-carboxamide]	1.8 nM	106%	49 nM					
C[C@H]1CCCN1C(=O)c1nc(C(=O)NCC(C)(C)N)sc1-c1cnc(NC(C)(C)C)cc1C(F)(F)F [Example 355, N-(2-Amino-2-methyl-propyl)-5-[6-(tert-butylamino)-4-(trifluoromethyl)-3-pyridyl]-4-[(2S)-2-methylpyrrolidine-1-carbonyl]thiazole-2-carboxamide]	22 nM	98%	170 nM					
CC[C@H](Nc1cc(C(F)F)c(-c2sc(C(=O)N[C@H]3C[C@H]3O)nc2C(=O)N2CCC[C@@H]2C)cn1)C(F)(F)F (relative stereo) [Example 212, 5-(4-(Difluoromethyl)-6-(((S)-1,1,1-trifluorobutan-2-yl)amino)pyridin-3-yl)-N-((1S*,2R*)-2-hydroxycyclopropyl)-4-((S)-2-methylpyrrolidine-1-carbonyl)thiazole-2-carboxamide]	13 nM			104* %	300 nM			
C[C@H]1CCCN1C(=O)c1nc(C(=O)NCC(C)(C)O)sc1-c1cnc(N[C@H]2CCCC2(F)F)cc1C(F)(F)F (single isomer, unassigned) [Example 279, 5-(6-(((S*)-2,2-Difluorocyclopentyl)amino)-4-(trifluoromethyl)pyridin-3-yl)-N-(2-hydroxy-2-methylpropyl)-4-((S)-2-methylpyrrolidine-1-carbonyl)thiazole-2-carboxamide]	18 nM		62 nM				109%	
C[C@H]1CCCN1C(=O)c1nc(C(=O)N2CC(O)C2)sc1-c1cnc(NC(C)(C)C)cc1C(F)(F)F [Example 250, [5-[6-(tert-Butylamino)-4-(trifluoromethyl)-3-pyridyl]-2-(3-hydroxyazetidine-1-carbonyl)thiazol-4-yl]-[(2S)-2-methylpyrrolidin-1-yl]methanone]	8.1 nM	106%	28 nM					
C[C@H]1CCCN1C(=O)c1nc(C(=O)NCC(C)(C)O)sc1-c1cnc(NC2(C)CCC2)cc1C(F)(F)F [Example 77, (S)—N-(2-Hydroxy-2-methylpropyl)-5-(6-((1-methylcyclobutyl)amino)-4-(trifluoromethyl)pyridin-3-yl)-4-(2-methylpyrrolidine-1-carbonyl)thiazole-2-carboxamide]	1.3 nM			108* %	17 nM			
C[C@H](CO)NC(=O)c1nc(C(=O)N2CCC[C@@H]2C)c(-c2cnc(N[C@@H](C)C(F)(F)F)cc2C(F)F)s1 [Example 284, 5-(4-(Difluoromethyl)-6-(((S)-1,1,1-trifluoropropan-2-yl)amino)pyridin-3-yl)-N—((R)-1-hydroxypropan-2-yl)-4-((S)-2-methylpyrrolidine-1-carbonyl)thiazole-2-carboxamide]	8.1 nM	111%	110 nM					
C[C@H]1CCCN1C(=O)c1nc(C(=O)NCC(C)(C)O)sc1-c1cnc(N[C@@H]2CCCC2(F)F)cc1C(F)(F)F (single isomer, unassigned) [Example 280, 5-(6-(((R*)-2,2-Difluorocyclopentyl)amino)-4-(trifluoromethyl)pyridin-3-yl)-N-(2-hydroxy-2-methylpropyl)-4-((S)-2-methylpyrrolidine-1-carbonyl)thiazole-2-carboxamide]	4.9 nM	110%	16 nM					
CC[C@@H](Nc1cc(C(F)F)c(-c2sc(C(=O)N[C@@H]3COC[C@H]3O)nc2C(=O)N2CCC[C@@H]2C)cn1)C(F)(F)F [Example 204, 5-(4-(Difluoromethyl)-6-(((1R)-1-(trifluoromethyl)propyl)amino)-3-pyridyl)-N-((3R,4S)-4-hydroxytetrahydrofuran-3-yl)-4-((2S)-2-methylpyrrolidine-1-carbonyl)thiazole-2-carboxamide]	3.6 nM			105* %	24 nM			
C[C@H]1CCCN1C(=O)c1nc(C(=O)NCC(C)(C)O)sc1-c1cnc(NC(C2CC2)C(F)(F)F)cc1C(F)F (stereo partly drawn) [Example 294]	1.3 nM	100%	13 nM					
CC(C)(C)Nc1cc(C(F)F)c(-c2sc(C(=O)N[C@H]3CC[C@H](O)C3)nc2C(=O)N2C3CCC2CC3)cn1 [Example 413, 4-((1s,4s)-7-Azabicyclo[2.2.1]heptane-7-carbonyl)-5-[6-(tert-butylamino)-4-(difluoromethyl)-3-pyridyl]-N-[(1S,3S)-3-hydroxycyclopentyl]thiazole-2-carboxamide]	0.82 nM						133%	20 nM
CC[C@H](Nc1cc(C(F)F)c(-c2sc(C(=O)N[C@H]3CCC[C@@H]3O)nc2C(=O)N2CC(F)(F)C[C@@H]2C)cn1)C(F)(F)F [Example 419, 4-[(2S)-4,4-Difluoro-2-methyl-pyrrolidine-1-carbonyl]-5-[4-(difluoromethyl)-6-[[(1S)-1-(trifluoromethyl)propyl]amino]-3-pyridyl]-N-[(1S,2S)-2-hydroxycyclopentyl]thiazole-2-carboxamide]	0.21 nM	84%	34 nM					
CC(C)(O)CNC(=O)c1nc(C(=O)N2C3CCC2CC3)c(-c2cnc(NC3(C(F)(F)F)CCC3)cc2C(F)(F)F)s1 [Example 99, 4-((1s,4s)-7-Azabicyclo[2.2.1]heptane-7-carbonyl)-N-(2-hydroxy-2-methylpropyl)-5-(4-(trifluoromethyl)-6-((1-(trifluoromethyl)cyclobutyl)amino)pyridin-3-yl)thiazole-2-carboxamide]	0.58 nM			108* %	11 nM			
C[C@H](NC(=O)c1nc(C(=O)N2CC(F)(F)C[C@@H]2C)c(-c2cnc(NC3(C)CCC3)cc2C(F)(F)F)s1)C(C)(C)O [Example 195, 4-((S)-4,4-Difluoro-2-methylpyrrolidine-1-carbonyl)-N—((S)-3-hydroxy-3-methylbutan-2-yl)-5-(6-((1-methylcyclobutyl)amino)-4-(trifluoromethyl)pyridine-3-yl)thiazole-2-carboxamide]	0.43 nM			85* %	33 nM			
CC[C@H](Nc1cc(C(F)F)c(-c2sc(C(=O)N[C@H]3CC[C@H](O)C3)nc2C(=O)N2C3CCC2CC3)cn1)C(F)(F)F [Example 151]	0.87 nM			104* %	15 nM			
